# Data from patent publication US8940705B2, “Method of treating disease and selectively modulating transcriptional regulation by a glucocorticoid receptor by administering aclacinomycin and dexamethasone” (The Regents of the University of California, priority 2009, dated 2015).
# Columns and labels:
# Assay type in all cases: cell-based
# GR [1] = molecular target: T1, GR (Homo sapiens, UniProt P04150); test: Luciferase assays, GR-responsive reporters, A549 cells; parameters: endogenous in cells; host or cells: A549; details: for Dose dependent: whether the drug acted dose-dependently on GR-luciferase reporters; for GR activity (GR-mediated induction of pENaC-luc reporter): pENaC-luc and pSV40-rl
# T1 sequence (P04150 1-777): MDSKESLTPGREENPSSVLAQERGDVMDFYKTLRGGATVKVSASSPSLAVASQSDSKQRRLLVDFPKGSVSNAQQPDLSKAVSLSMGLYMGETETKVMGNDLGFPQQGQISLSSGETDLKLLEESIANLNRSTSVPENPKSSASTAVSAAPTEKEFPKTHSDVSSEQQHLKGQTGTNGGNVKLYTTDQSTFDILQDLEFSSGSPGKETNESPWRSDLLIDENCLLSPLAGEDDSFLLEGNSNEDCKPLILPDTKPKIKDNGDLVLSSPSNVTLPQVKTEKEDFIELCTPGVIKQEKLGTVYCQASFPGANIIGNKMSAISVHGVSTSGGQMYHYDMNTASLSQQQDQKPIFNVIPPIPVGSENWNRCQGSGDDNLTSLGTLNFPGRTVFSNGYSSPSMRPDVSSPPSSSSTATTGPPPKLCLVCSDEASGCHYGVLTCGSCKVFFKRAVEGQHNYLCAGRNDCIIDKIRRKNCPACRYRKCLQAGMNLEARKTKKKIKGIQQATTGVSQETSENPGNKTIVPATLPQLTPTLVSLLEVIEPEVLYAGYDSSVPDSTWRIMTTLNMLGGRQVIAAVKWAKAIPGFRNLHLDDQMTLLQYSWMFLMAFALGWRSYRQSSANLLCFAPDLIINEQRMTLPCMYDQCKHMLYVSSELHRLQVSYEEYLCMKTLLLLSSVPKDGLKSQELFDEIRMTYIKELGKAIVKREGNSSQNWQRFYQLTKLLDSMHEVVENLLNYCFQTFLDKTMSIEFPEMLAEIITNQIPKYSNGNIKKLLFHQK
# Description: (§1) Transfections. The day prior to transfection, ˜3×10^5 cells were plated in 6-well dishes. Transfections used Lipofectamine 2000 (Invitrogen). 4 μg of total plasmid DNA were used for each transfection. For A549 cells, 500 μL of DNA/lipofectamine complex was added to 1.5 ml of DMEM with pen/strep and 5% FBS. For U2OS cells, 500 μl of DNA/lipofectamine complex was added to 1.5 ml of Optimem. After 3-4 hours of incubation, media was replaced with standard growth media.
# (§2) Luciferase assays. Luciferase assays used the Promega Dual-Luciferase Reporter system. Briefly, cells were transfected with various firefly luciferase plasmids and pSV40-RL at a ratio of 10:1. The day after transfection, cells were split into 96-well dishes and treated with dex and various drugs. Cells were harvested in 50 μl 1XPLB (Promega) 12-18 hr after drug treatment and luciferase assays were performed on 10 μl of lysate. Luminscence was detected using an Ultra Evolution plate reader (Tecan).
# GR [2] = test: qPCR of endogenous GR target genes, cell line not distinguished (FIG. 4B, 5D); details: with dex, 24 hr
# From the text: (§3) Quantitative PCR. Total RNA isolation used Trizol and Pure Link (Invitrogen). […] Rpl19 expression was used for data normalization.
# GR [3] = molecular target: T1, GR; test: Multi-promoter fluorescent protein reporter compound screen for GR modulators; parameters: endogenous in cells; host or cells: A549; details: A549 cells, library compounds 2.5 μM with dex 100 nM; reporter fluorescence relative to plate mean
# Description: Compound Screen. A549 cells were transfected with an equal mixture of pENaC-CFP, pGILZ-YFP, pFKBP5-OFP (1.3 μg each), or with pSV40-ChFP (4 μg). The next day, cells were mixed (˜1.8×10^4 of the cells triple-transfected with pENaC-CFP, pGILZ-YFP, pFKBP5-OFP; ˜2×10^3 cells transfected with pSV40-ChFP) and replated into 96 well plates (Costar 3603). 2 hours later, library compounds (2.5 μM) and dex (100 nM) were added using a Biomek robot. The following day, cells were fixed for 4 minutes in 4% paraformaldehyde and fluorescence was measured sequentially for each reporter using a Safire plate reader (Tecan). Hits were scored based on the mean and standard deviation (s.d.) of the experimental wells on each plate. Criteria for a hit were if one reporter was more than 1.5×s.d. from the mean in duplicate, or if two reporters were more than 0.8×s.d. from the mean in duplicate. If the control SV40-ChFP was more than 2×s.d. from the mean in a single plate, or 0.8×s.d. in duplicate plates (in the same direction as the GR reporters), the well was not scored as a hit.
# We used the system of Example 1 to screen a library of 1040 natural products and FDA-approved drugs for modulators of GR signaling (Abbott, A. Nature 417:109). The screen design is outlined in FIG. 2. The pENaC-CFP, pGILZ-YFP, and pFKBP5-OFP reporters indicated GR signaling, while pSV40-mCh, an internal control, excluded non-specific transcription inhibitors and toxins. We screened the library in duplicate in the presence of saturating dex (100 nM). Z′, a function that reflects the ability to discriminate between control and experimental wells (Zhang, J. H. et al., J Biomol Screen 4:67-73 (1999)), was determined for dex treatment of each GR reporter. The Z′ values were: Z′(ENAC-CFP)=0.68; Z′(GILZ-YFP)=0.64; and Z′(FKBP5-OFP)=0.66. These indicate that the screen should efficiently identify compounds that increase or decrease fluorescence from any of the three experimental promoters (Zhang, J. H. et al., J Biomol Screen 4:67-73 (1999)).
# GR [4] = molecular target: T1, GR; test: qPCR of endogenous GR target genes, A549 cells; parameters: endogenous in cells; host or cells: A549; details: with dex, RPL19 reference
# From the text: as §3
# GR [5] = molecular target: T2, GR (Rattus norvegicus, UniProt P06536); test: Luciferase assays, GR-responsive reporters, U2OS-GR cells; details: pENaC-luc and pSV40-rl, with dex
# T2 construct: expressed in transfected cells; host or cells: U2OS-GR
# T2 sequence (P06536 1-795): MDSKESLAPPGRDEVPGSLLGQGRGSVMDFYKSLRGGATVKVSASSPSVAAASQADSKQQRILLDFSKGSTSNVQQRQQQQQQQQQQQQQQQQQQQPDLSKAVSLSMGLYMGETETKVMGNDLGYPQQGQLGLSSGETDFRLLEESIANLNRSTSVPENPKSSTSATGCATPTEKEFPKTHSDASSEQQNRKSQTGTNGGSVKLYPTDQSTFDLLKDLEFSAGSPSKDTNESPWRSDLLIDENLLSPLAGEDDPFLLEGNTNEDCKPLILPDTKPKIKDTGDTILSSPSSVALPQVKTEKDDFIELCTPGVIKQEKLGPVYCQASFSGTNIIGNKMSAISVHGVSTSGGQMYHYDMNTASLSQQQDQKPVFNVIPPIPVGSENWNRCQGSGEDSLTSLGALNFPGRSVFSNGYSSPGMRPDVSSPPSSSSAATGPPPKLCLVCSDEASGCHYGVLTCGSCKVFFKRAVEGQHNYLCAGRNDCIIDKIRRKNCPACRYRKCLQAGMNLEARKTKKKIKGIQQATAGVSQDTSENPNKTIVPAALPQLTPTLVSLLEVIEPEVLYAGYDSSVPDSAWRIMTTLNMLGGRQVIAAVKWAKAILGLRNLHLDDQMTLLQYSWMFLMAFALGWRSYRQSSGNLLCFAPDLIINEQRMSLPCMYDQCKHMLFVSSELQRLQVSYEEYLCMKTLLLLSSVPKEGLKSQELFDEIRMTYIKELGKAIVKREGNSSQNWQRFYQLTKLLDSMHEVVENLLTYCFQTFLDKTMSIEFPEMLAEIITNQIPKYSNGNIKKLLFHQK
# Description: as §1, §2
Dose dependent (GR [1]),ENaC-CFP (GR [3]),GILZ-YFP (GR [3]),Compound,FKBP5-OFP (GR [3]),"GR activity (GR-mediated induction of pENaC-luc reporter) (GR [1]; A549 cells, with dex)",other results
,,,"CC[C@@]1(O)C[C@H](O[C@H]2C[C@H](N(C)C)[C@H](O[C@H]3C[C@@H]4O[C@H]5CC(=O)[C@H](C)O[C@H]5O[C@@H]4[C@H](C)O3)[C@H](C)O2)c2c(cc3c(c2O)C(=O)c2c(O)ccc(O)c2C3=O)[C@H]1C(=O)OC [Cin B, Cinerubin (Cin) B]",,potently inhibited GR activity,"expression of endogenous GR target genes (relative mRNA, qPCR) (GR [4]): inhibited GR at the tested promoters"
,,,COc1cccc2c1C(=O)c1c(O)c3c(c(O)c1C2=O)C[C@@](O)(C(=O)CO)C[C@@H]3O[C@H]1C[C@H](N)[C@H](O)[C@H](C)O1 [Doxorubicin],,inhibited GR,
no,No effect,↓ (0.8 to 2 s.d. less than the mean (↓)),O=c1oc2c(O)c(O)cc3c(=O)oc4c(O)c(O)cc1c4c23 [Ellagic Acid],↓ (0.8 to 2 s.d. less than the mean (↓)),,
no,No effect,↓ (0.8 to 2 s.d. less than the mean (↓)),C[N+]1(C)CCCC(OC(=O)C(O)(c2ccccc2)c2ccccc2)C1 (stereo not shown) [Mepenzolate],↓ (0.8 to 2 s.d. less than the mean (↓)),,
,,,O=C1C=CC(=C(c2ccccc2)c2ccc(O)cc2)C=C1 [NSC55861],,dose dependently reduced GR activity,
,,,O=C(/C=C/c1ccccc1)/C=C/c1ccccc1O [NSC636788],,dose dependently reduced GR activity,
yes,↓ (0.8 to 2 s.d. less than the mean (↓)),No effect,O=C1C=CC(=C(c2ccc(O)cc2)c2ccc(O)cc2)C=C1 [Rosolic Acid],↓ (0.8 to 2 s.d. less than the mean (↓)),,"Dose dependent (GR [1]; listed as rosolic acid): dose dependent effects; expression of endogenous GR target genes (qPCR), overall (GR [2]): selectively modulated endogenous GR target genes; induction of endogenous ENaC (qPCR) (GR [2]): inhibited; induction of endogenous FKBP5 (qPCR) (GR [2]): inhibited; induction of endogenous GILZ (qPCR) (GR [2]): failed to inhibit"
no,No effect,No effect,CS(=O)(=O)c1ccc([C@@H](O)[C@@H](CO)NC(=O)C(Cl)Cl)cc1 [Thiamphenicol],↑↑↑^e (more than 2 s.d. greater than the mean (↑↑↑)),,
,,,COc1cccc2c1C(=O)c1c(O)c3c(c(O)c1C2=O)C[C@@](O)(C(C)=O)C[C@@H]3O[C@H]1C[C@H](N)[C@H](O)[C@H](C)O1 [daunorubicin],,inhibited GR,
,,,a amanitin,,,"effect on GR-dependent reporter pENaC-luc compared with GR-independent constitutive reporter pSV40-rl (GR [1]; A549 cells, with dex): reduced the activity of both reporters to similar extents"

Compound,Dose dependent (GR [1]),ENaC-CFP (GR [3]),GILZ-YFP (GR [3]),FKBP5-OFP (GR [3]),"GR activity (GR-mediated induction of pENaC-luc reporter) (GR [1]; A549 cells, with dex)",other results
Cc1cc(C2CCCCC2)n(O)c(=O)c1 [Ciclopirox olamine],dose dependent effects and yes,↓^c (0.8 to 2 s.d. less than the mean (↓)),↓ (0.8 to 2 s.d. less than the mean (↓)),no effect,,"expression of endogenous GR target genes (qPCR), overall (GR [2]): general GR antagonist"
"CCCCCC(=O)O[C@]1(C(C)=O)CC[C@H]2[C@@H]3CCC4=CC(=O)CC[C@]4(C)[C@H]3CC[C@@]21C [Hpg. caproate, Hydroxyprogesterone caproate]",yes,No effect,↓↓↓ (more than 2 standard deviations (s.d.) less than the mean (↓↓↓)),↓↓↓ (more than 2 standard deviations (s.d.) less than the mean (↓↓↓)),,"Dose dependent (GR [1]; listed as Hpg): dose dependent effects; expression of endogenous GR target genes (qPCR), overall (GR [2]): selectively modulated endogenous GR target genes; induction of endogenous ENaC (qPCR) (GR [2]): no impact; induction of endogenous FKBP5 (qPCR) (GR [2]): reduced induction; induction of endogenous GILZ (qPCR) (GR [2]): reduced induction"
O=C1c2c(O)ccc(O)c2C(=O)c2c(NCCNCCO)ccc(NCCNCCO)c21 [Mitoxantrone],yes,↓↓↓ (more than 2 standard deviations (s.d.) less than the mean (↓↓↓)),↓↓↓ (more than 2 standard deviations (s.d.) less than the mean (↓↓↓)),↓↓↓ (more than 2 standard deviations (s.d.) less than the mean (↓↓↓)),antagonists of GR,GR activity (luciferase reporter) (GR [5]): inhibited GR
COC(=O)[C@H]1[C@H]2C[C@@H]3c4[nH]c5cc(OC)ccc5c4CCN3C[C@H]2C[C@@H](OC(=O)c2cc(OC)c(OC)c(OC)c2)[C@@H]1OC [Reserpine],no,↑ (0.8 to 2 s.d. greater than the mean (↑)),↑ (0.8 to 2 s.d. greater than the mean (↑)),↑ (0.8 to 2 s.d. greater than the mean (↑)),,
